What was measured:
Format in all cases: in vivo
[1] = test system: Italian ryegrass (Lolium multiflorum); assay: Test A preemergence, visual plant response rating; details: for Ryegrass, Italian plant response rating: 125 g ai/ha, preemergence, 0 to 100 scale, 0 no effect, 100 complete control; for Ryegrass, Italian plant response rating (0 to 100 scale): 500 g ai/ha Preemergence, approx. 10 days
Outline: (§1)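 Ratings 0–100 (100 = complete control), visual, vs untreated controls at ~10 days. Application pre- or postemergence; solvent mixture with surfactant; loam/sand medium.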

[2] = test system: barnyardgrass (Echinochloa crus-galli); assay: Test A preemergence, visual plant response rating; details: for Barnyardgrass plant response rating: 125 g ai/ha, preemergence, 0 to 100 scale, 0 no effect, 100 complete control; for Barnyardgrass plant response rating (0 to 100 scale): 500 g ai/ha Preemergence, approx. 10 days
Outline: as §1

[3] = test system: foxtail, giant (giant foxtail, Setaria faberii); assay: Test A preemergence, visual plant response rating; details: for Foxtail, Giant plant response rating: 125 g ai/ha, preemergence, 0 to 100 scale, 0 no effect, 100 complete control; for Foxtail, Giant plant response rating (0 to 100 scale): 500 g ai/ha Preemergence, approx. 10 days
Outline: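 Ratings use a 0–100 visual scale (100 = complete control) against untreated controls, scored about 10 days after greenhouse treatment. Test chemicals were formulated in surfactant-containing non-phytotoxic solvent and applied either as soil spray after planting (preemergence) or onto one- to two-leaf, 2–10 cm plants (postemergence).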

[4] = test system: kochia (Kochia scoparia); assay: Test A preemergence, visual plant response rating; details: for Kochia plant response rating: 125 g ai/ha, preemergence, 0 to 100 scale, 0 no effect, 100 complete control; for Kochia plant response rating (0 to 100 scale): 500 g ai/ha Preemergence, approx. 10 days
Outline: as §1

[5] = test system: pigweed (Amaranthus retroflexus); assay: Test A preemergence, visual plant response rating; details: for Pigweed plant response rating: 125 g ai/ha, preemergence, 0 to 100 scale, 0 no effect, 100 complete control; for Pigweed plant response rating (0 to 100 scale): 500 g ai/ha Preemergence, approx. 10 days
Outline: as §1

[6] = test system: ragweed (common ragweed, Ambrosia elatior); assay: Test A preemergence, visual plant response rating; details: for Ragweed plant response rating: 125 g ai/ha, preemergence, 0 to 100 scale, 0 no effect, 100 complete control; for Ragweed plant response rating (0 to 100 scale): 500 g ai/ha Preemergence, approx. 10 days
Outline: as §1

[7] = test system: Italian ryegrass (Lolium multiflorum); assay: Test A postemergence, visual plant response rating; details: for Ryegrass, Italian plant response rating (0 to 100 scale): 500 g ai/ha, postemergence, 0 is no effect, 100 is complete control; for Ryegrass, Italian plant response rating: Postemergence, 125 g ai/ha, 0 to 100 scale (0 no effect, 100 complete control)
Outline: as §1

[8] = test system: barnyardgrass (Echinochloa crus-galli); assay: Test A postemergence, visual plant response rating; details: for Barnyardgrass plant response rating (0 to 100 scale): 500 g ai/ha, postemergence, 0 is no effect, 100 is complete control; for Barnyardgrass plant response rating: Postemergence, 125 g ai/ha, 0 to 100 scale (0 no effect, 100 complete control)
Outline: as §1

[9] = test system: blackgrass (Alopecurus myosuroides); assay: Test A postemergence, visual plant response rating; details: for Blackgrass plant response rating (0 to 100 scale): 500 g ai/ha, postemergence, 0 is no effect, 100 is complete control; for Blackgrass plant response rating: Postemergence, 125 g ai/ha, 0 to 100 scale (0 no effect, 100 complete control)
Outline: as §1

[10] = test system: corn (Zea mays); assay: Test A postemergence, visual plant response rating; details: for Corn plant response rating (0 to 100 scale): 500 g ai/ha, postemergence, 0 is no effect, 100 is complete control; for Corn plant response rating: Postemergence, 125 g ai/ha, 0 to 100 scale (0 no effect, 100 complete control)
Outline: as §1

[11] = test system: foxtail, giant (giant foxtail, Setaria faberii); assay: Test A postemergence, visual plant response rating; details: for Foxtail, Giant plant response rating (0 to 100 scale): 500 g ai/ha, postemergence, 0 is no effect, 100 is complete control; for Foxtail, Giant plant response rating: Postemergence, 125 g ai/ha, 0 to 100 scale (0 no effect, 100 complete control)
Outline: as §1

[12] = test system: galium (catchweed bedstraw, Galium aparine); assay: Test A postemergence, visual plant response rating; details: for Galium plant response rating (0 to 100 scale): 500 g ai/ha, postemergence, 0 is no effect, 100 is complete control; for Galium plant response rating: Postemergence, 125 g ai/ha, 0 to 100 scale (0 no effect, 100 complete control)
Outline: as §1

[13] = test system: kochia (Kochia scoparia); assay: Test A postemergence, visual plant response rating; details: for Kochia plant response rating (0 to 100 scale): 500 g ai/ha, postemergence, 0 is no effect, 100 is complete control; for Kochia plant response rating: Postemergence, 125 g ai/ha, 0 to 100 scale (0 no effect, 100 complete control)
Outline: as §1

[14] = test system: pigweed (Amaranthus retroflexus); assay: Test A postemergence, visual plant response rating; details: for Pigweed plant response rating (0 to 100 scale): 500 g ai/ha, postemergence, 0 is no effect, 100 is complete control; for Pigweed plant response rating: Postemergence, 125 g ai/ha, 0 to 100 scale (0 no effect, 100 complete control)
Outline: as §1

[15] = test system: ragweed (common ragweed, Ambrosia elatior); assay: Test A postemergence, visual plant response rating; details: for Ragweed plant response rating (0 to 100 scale): 500 g ai/ha, postemergence, 0 is no effect, 100 is complete control; for Ragweed plant response rating: Postemergence, 125 g ai/ha, 0 to 100 scale (0 no effect, 100 complete control)
Outline: as §1

[16] = test system: wheat (Triticum aestivum); assay: Test A postemergence, visual plant response rating; details: for Wheat plant response rating (0 to 100 scale): 500 g ai/ha, postemergence, 0 is no effect, 100 is complete control; for Wheat plant response rating: Postemergence, 125 g ai/ha, 0 to 100 scale (0 no effect, 100 complete control)
Outline: as §1

[17] = test system: barnyardgrass (Echinochloa crus-galli); assay: Test B flooded paddy test, visual plant response rating; details: 250 g ai/ha, Flood, applied to paddy water, 2-leaf stage, evaluated after 13 to 15 days
Outline: (§2)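 Compounds added straight into paddy water of pots flooded to 3 cm, with 2-leaf-stage plants of the four species; water level held throughout.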

[18] = test system: ducksalad (Heteranhera limosa); assay: as above; details: 250 g ai/ha, Flood, applied to paddy water, 2-leaf stage, evaluated after 13 to 15 days
Outline: as §2

[19] = test system: rice (Oryza sativa); assay: as above; details: 250 g ai/ha, Flood, applied to paddy water, 2-leaf stage, evaluated after 13 to 15 days
Outline: as §2

[20] = test system: sedge, umbrella (small-flower umbrella sedge, Cyperus difformis); assay: as above; details: 250 g ai/ha, Flood, applied to paddy water, 2-leaf stage, evaluated after 13 to 15 days
Outline: as §2

| SMILES | Ryegrass, Italian plant response rating [1] | Ryegrass, Italian plant response rating (0 to 100 scale) [1] | Barnyardgrass plant response rating [2] | Barnyardgrass plant response rating (0 to 100 scale) [2] | Foxtail, Giant plant response rating [3] | Foxtail, Giant plant response rating (0 to 100 scale) [3] | Kochia plant response rating [4] | Kochia plant response rating (0 to 100 scale) [4] | Pigweed plant response rating [5] | Pigweed plant response rating (0 to 100 scale) [5] | Ragweed plant response rating [6] | Ragweed plant response rating (0 to 100 scale) [6] | Ryegrass, Italian plant response rating (0 to 100 scale) [7] | Ryegrass, Italian plant response rating [7] | Barnyardgrass plant response rating (0 to 100 scale) [8] | Barnyardgrass plant response rating [8] | Blackgrass plant response rating (0 to 100 scale) [9] | Blackgrass plant response rating [9] | Corn plant response rating (0 to 100 scale) [10] | Corn plant response rating [10] | also measured |
| --- | --- | --- | --- | --- | --- | --- | --- | --- | --- | --- | --- | --- | --- | --- | --- | --- | --- | --- | --- | --- | --- |
| C#CCON=C(c1c(O)c(C)nn(C)c1=O)c1cc(Br)cc2ccccc12 [Compound 116] | 100 | 100 | 100 | 100 | 90 | 100 | 10 | 100 | 100 | 100 | 90 | 90 | 100 | 90 | 90 | 90 | 100 | 100 | 80 | 30 | Foxtail, Giant plant response rating (0 to 100 scale) [11]: 90; Foxtail, Giant plant response rating [11]: 90; Galium plant response rating (0 to 100 scale) [12]: 100; Galium plant response rating [12]: 100; Kochia plant response rating (0 to 100 scale) [13]: 80; Kochia plant response rating [13]: 60; Pigweed plant response rating (0 to 100 scale) [14]: 100; Pigweed plant response rating [14]: 90; Ragweed plant response rating (0 to 100 scale) [15]: 100; Ragweed plant response rating [15]: 100; Wheat plant response rating (0 to 100 scale) [16]: 60; Wheat plant response rating [16]: 50; Plant response rating, Barnyardgrass (0 to 100 scale, 0 is no effect, 100 is complete control) [17]: 55; Plant response rating, Ducksalad (0 to 100 scale, 0 is no effect, 100 is complete control) [18]: 60; Plant response rating, Rice (0 to 100 scale, 0 is no effect, 100 is complete control) [19]: 5; Plant response rating, Sedge, Umbrella (0 to 100 scale, 0 is no effect, 100 is complete control) [20]: 30 |
| CON=C(c1c(O)c(C)nn(C)c1=O)c1cccc2cc(F)ccc12 [Compound 119] | 30 | 100 | 50 | 80 | 80 | 100 | 30 | 80 | 80 | 100 | 90 | 90 | 90 | 80 | 80 | 70 | 90 | 80 | 40 | 10 | Foxtail, Giant plant response rating (0 to 100 scale) [11]: 80; Foxtail, Giant plant response rating [11]: 70; Galium plant response rating (0 to 100 scale) [12]: 100; Galium plant response rating [12]: 80; Kochia plant response rating (0 to 100 scale) [13]: 70; Kochia plant response rating [13]: 70; Pigweed plant response rating (0 to 100 scale) [14]: 90; Pigweed plant response rating [14]: 80; Ragweed plant response rating (0 to 100 scale) [15]: 90; Ragweed plant response rating [15]: 90; Wheat plant response rating (0 to 100 scale) [16]: 0; Wheat plant response rating [16]: 0; Plant response rating, Barnyardgrass (0 to 100 scale, 0 is no effect, 100 is complete control) [17]: 0; Plant response rating, Ducksalad (0 to 100 scale, 0 is no effect, 100 is complete control) [18]: 0; Plant response rating, Rice (0 to 100 scale, 0 is no effect, 100 is complete control) [19]: 0; Plant response rating, Sedge, Umbrella (0 to 100 scale, 0 is no effect, 100 is complete control) [20]: 0 |
